In PubChem BioAssay (NCI) one finds TGI data, which are given here for eight molecules.

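Test compounds were applied to cells in 96-well plates for 48 hours at 5 doses. The concentration for full growth arrest is given as TGI.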

Test systems include NCI-H23 lung; OVCAR-8 ovarian; 786-0 renal; NCI-H460 lung; SNB-75 CNS; MCF7 breast; TK-10 renal; KM12 colon; MDA-N; MDA-MB-435; CAKI-1 renal; OVCAR-3 ovarian; SNB-19 CNS; HCT-15 colon; M14 melanoma; SK-MEL-5 melanoma; BT-549 breast; MALME-3M melanoma; A498 renal; K-562 leukemia.
Common to all, as to assay: NCI anticancer screen, dose series, 48 h

In the case of `Cc1nc2ncn3c(c-2c1Cc1ccccc1)NC=C(O)N3`, the TGI with NCI-H23 lung was above 100 µM; with OVCAR-8 ovarian it was above 100 µM; in the test with 786-0 renal it was above 100 µM; in the test with NCI-H460 lung, above 100 µM; in the test on SNB-75 CNS it was 67.8 µM; with MCF7 breast, above 100 µM. Further, the TGI with TK-10 renal, in the test on KM12 colon, in the test with MDA-N, in the test with MDA-MB-435, with CAKI-1 renal and in the test with OVCAR-3 ovarian was above 100 µM throughout. In addition, the TGI with SNB-19 CNS, in the test on HCT-15 colon, in the test with M14 melanoma, in the test on SK-MEL-5 melanoma, with BT-549 breast and in the test on MALME-3M melanoma was above 100 µM in each case. This molecule showed a TGI in the test with A498 renal above 100 µM.
Take `O=C1CC(c2ccc(Cl)cc2)C2(C(=O)NC(=O)NC2=O)C(c2ccc(Cl)cc2)C1` (centres undefined): the TGI in the test with NCI-H23 lung, in the test on OVCAR-8 ovarian, with 786-0 renal, with NCI-H460 lung, in the test with SNB-75 CNS and in the test on MCF7 breast was above 75 µM in each case. Besides, the TGI with TK-10 renal was above 75 µM; with KM12 colon, above 75 µM; with MDA-N, 49 µM; in the test on MDA-MB-435, 43.8 µM; with CAKI-1 renal it was above 75 µM; in the test on OVCAR-3 ovarian, above 75 µM. For the same molecule, the TGI is above 75 µM in the test with K-562 leukemia; above 75 µM with SNB-19 CNS; above 75 µM in the test with HCT-15 colon; above 75 µM with M14 melanoma; 47.1 µM with SK-MEL-5 melanoma; above 75 µM with BT-549 breast. The TGI in the test with MALME-3M melanoma was found to be 39.8 µM.
For the molecule `CCN(CC)c1ccc2cc(C(=O)Nc3nc(C45CC6CC(CC(C6)C4)C5)cs3)c(=O)oc2c1`, the TGI in the test with NCI-H23 lung, with OVCAR-8 ovarian, in the test with 786-0 renal, in the test on NCI-H460 lung, in the test with MCF7 breast and in the test with TK-10 renal was above 100 µM throughout. The TGI in the test with KM12 colon, in the test on MDA-N, in the test on MDA-MB-435, in the test on CAKI-1 renal, in the test with OVCAR-3 ovarian and in the test with K-562 leukemia was above 100 µM each time. The TGI with SNB-19 CNS, in the test with HCT-15 colon, in the test on SK-MEL-5 melanoma, with BT-549 breast, in the test on MALME-3M melanoma and with A498 renal was above 100 µM in each case.
With `Cc1cc(=O)oc2c3c(ccc12)OC(c1ccc(Br)cc1)CC3=O` (centres undefined), the TGI in the test on NCI-H23 lung was 27.5 µM; in the test with OVCAR-8 ovarian, 33.7 µM; with 786-0 renal, 25.5 µM; with NCI-H460 lung, 36.8 µM; in the test with SNB-75 CNS, 18.6 µM; in the test on MCF7 breast, 12.7 µM. The TGI was 27.1 µM with TK-10 renal; 33.1 µM in the test with KM12 colon; above 100 µM with MDA-N; 16.9 µM in the test on MDA-MB-435; 43.8 µM in the test with CAKI-1 renal; 24.3 µM in the test on OVCAR-3 ovarian. The TGI came out at 19 µM in the test with K-562 leukemia; 20.5 µM in the test with SNB-19 CNS; 34.2 µM in the test on HCT-15 colon; 31.6 µM in the test with M14 melanoma; 24.5 µM with SK-MEL-5 melanoma; 11.4 µM in the test on BT-549 breast. Also, the TGI with MALME-3M melanoma is 71.3 µM.
Take `Nc1cc(N2CCOCC2)nc(=O)n1-c1ccc(Cl)cc1`: the TGI in the test on NCI-H23 lung, with OVCAR-8 ovarian, in the test with 786-0 renal, in the test with NCI-H460 lung, in the test on SNB-75 CNS and with MCF7 breast was above 100 µM in each case. Moreover, the TGI in the test with KM12 colon, in the test with MDA-N, in the test with MDA-MB-435, in the test with CAKI-1 renal, in the test on OVCAR-3 ovarian and in the test on K-562 leukemia was above 100 µM in each case. Besides, the TGI in the test on SNB-19 CNS, in the test with HCT-15 colon, in the test with M14 melanoma, in the test on SK-MEL-5 melanoma, in the test with BT-549 breast and with A498 renal was above 100 µM throughout.
For `CC(C)(CC#N)c1cc(CC(C)(C)c2cc(CC(C)(C)c3cc(C(C)(C)C4(C)OCCO4)no3)no2)no1`, the TGI is above 100 µM with NCI-H23 lung; above 100 µM in the test on OVCAR-8 ovarian; 43.1 µM in the test with 786-0 renal; 43.5 µM in the test with SNB-75 CNS; above 100 µM in the test with MCF7 breast; above 100 µM in the test with TK-10 renal. Further, the TGI with KM12 colon was above 100 µM; in the test with MDA-N, above 100 µM; in the test on MDA-MB-435 it was above 100 µM; in the test with CAKI-1 renal, 87.2 µM; in the test with OVCAR-3 ovarian it was above 100 µM; in the test on K-562 leukemia it was above 100 µM. Besides, the TGI is 77.7 µM in the test with SNB-19 CNS; above 100 µM in the test on HCT-15 colon; above 100 µM in the test with M14 melanoma; above 100 µM in the test with SK-MEL-5 melanoma; above 100 µM in the test with BT-549 breast; above 100 µM in the test with MALME-3M melanoma. Further, the TGI in the test with A498 renal is above 100 µM.
For the molecule `CC(=O)c1sc(Nc2ccc(Cl)c(Cl)c2)nc1C`, the TGI in the test on NCI-H23 lung, in the test with OVCAR-8 ovarian, in the test on 786-0 renal, with NCI-H460 lung, in the test on SNB-75 CNS and with MCF7 breast was above 100 µM throughout. For the same molecule, the TGI in the test on TK-10 renal, in the test on KM12 colon, in the test with MDA-N, in the test on MDA-MB-435, in the test with CAKI-1 renal and in the test with OVCAR-3 ovarian was above 100 µM in each case. The TGI in the test on SNB-19 CNS, in the test with HCT-15 colon, with SK-MEL-5 melanoma, in the test with BT-549 breast, in the test with MALME-3M melanoma and in the test on A498 renal was above 100 µM in each case.
Turning to `CCOC(=O)C1=COC(C)(c2ccccc2)CC1=O` (centres undefined), the TGI in the test with NCI-H23 lung, in the test on OVCAR-8 ovarian, with 786-0 renal, in the test with NCI-H460 lung, with SNB-75 CNS and in the test on MCF7 breast was above 100 µM each time. Also, the TGI in the test on TK-10 renal, in the test on KM12 colon, in the test with MDA-N, in the test with MDA-MB-435, in the test with CAKI-1 renal and with OVCAR-3 ovarian was above 100 µM in each case. Also, the TGI in the test with K-562 leukemia, in the test on SNB-19 CNS, in the test on HCT-15 colon, in the test with M14 melanoma, in the test with SK-MEL-5 melanoma and with BT-549 breast was above 100 µM each time. In addition, in the test with A498 renal, the TGI is above 100 µM.
